Legend:
RAW 264.7 cells [1] = experiment: Effect of inhibiting production of NO in LPS-stimulated RAW 264.7 cells (Griess reagent); format: cell-based, mouse; conditions: compound 2 μg/mL, RAW 264.7 cells stimulated with LPS 25 ng/mL
Protocol: (§1) Effect of Inhibiting Production of NO and IL-6
(§2) Growth of RAW 264.7 cells (mouse macrophage strains) was maintained in an RPMI 1640 medium containing 10% fetal bovine serum (FBS) and an antibiotic (10% FBS/RPMI) under culture conditions of 5% CO2 at 37° C. Upon testing, RAW 264.7 cells were washed with cold Dulbecco's phosphate buffered saline and subsequently removed from the plastic culture bottle by use of EDTA/trypsin. The thus-removed cells were centrifuged-and washed, followed by dilution with 10% FBS/RPMI to 4×10^5/mL. The cell suspension (0.5 mL) was added to each well of a 24-well-plate, and cultured under 5% CO2, at 37° C. for 16 hours. […] The live cells were washed once with 1% FBS/RPMI. Each test compound was diluted with the same medium, to thereby adjust the concentration to a predetermined level, and the liquid containing the test compound was added to the washed cells. […] NO contained in the culture supernatant was quantitated for its stable form (NO2^−) by use of a Griess reagent kit (product of Wako Pure Chemical Industries Ltd.). IL-6 was quantitated by use of an ELISA kit (product of Amersham) in accordance with the manual thereof. […]

RAW 264.7 cells [2] = experiment: Effect of inhibiting production of IL-6 in LPS-stimulated RAW 264.7 cells (ELISA); format: cell-based; conditions: Mus musculus, RAW264.7, compound at 2 μg/mL, read-out: IL-6 production inhibitory effect Percent inhibition (%)
Protocol: as §1, §2

[3] = system: carrageenan-induced edema; experiment: Anti-inflammatory effect 1: effect against carrageenan-induced edema; format: in vivo; conditions: mouse, leg volume 9 days after carrageenan
Source text: Anti-inflammatory Effect 1: Effect Against Carrageenan-induced Edema
Male ICR mice (4 weeks old, Japan Charles River Co., Ltd.) were pre-bred in a breeding cage for about one week, and-healthy mice were selected for the test.
(2) Drugs Employed in the Test:
Each test compound was suspended in a 0.5% carboxymethyl cellulose sodium (0.5% CMC-Na solution, product of Wako Pure Chemical Industries, Ltd.) or dissolved in purified water. The suspension or solution was perorally administered at a dose of 0.1 mL/10 g (body weight of each mouse).
λ-Carrageenan (Picnin A, product of Zushi Kagaku) dissolved in physiological saline was used.
The volume of the right rear leg of each mouse was measured by means of a plethysmometer (product of Ugo Basile). Subsequently, a 2% carrageenan solution (0.05 mL) was injected into the foot pad of the leg. Five days after the injection of carrageenan (inflammation-inducing agent), the volume of the leg was measured. The mice were divided into groups, each group containing 8 mice. From the day of division (i.e., 5 days after administration of carrageenan), each test compound was preorally administered once per day for four days. The leg volume was measured before administration of each test compound and on the day after the final administration day (i.e., 9 days after administration of carrageenan). Percent edema and percent inhibition due to the test compound were calculated in accordance with the following equations, respectively. Percent edema (%)=[(leg volume (mL) after inflammation treatment−leg volume (mL) before inflammation treatment)/(leg volume (mL) before inflammation treatment)]×100 Percent inhibition (%)=[percent edema of control group (%)−percent edema of test-compound-administered group (%))/(percent edema of control group (%))]×100

**Q.** “5-(2-[4-(1H-Imidazolylmethyl)phenoxy]ethyl)sulfanil-2,3-diphenylpyrazine [Compound 1I]” was tested. Which “NO production inhibitory effect Percent inhibition (%)” value (RAW 264.7 cells [1]) did it give?
**A.** 62.8%

**Q.** `c1ccc(-c2ncc(OCCOc3ccc(Cn4ccnc4)cc3)nc2-c2ccccc2)cc1` [Compound 1A, 5-2-[4-(1H-imidazolylmethyl)phenoxy]ethoxy-2,3-diphenylpyrazine] was tested. Which inhibition at 2 µg/mL (RAW 264.7 cells [2]) did it give?
**A.** 54.6%

**Q.** What about the “Percent inhibition (%) of carrageenan-induced edema” value ([3]; 3 mg/kg perorally once per day for four days) of the same compound?
**A.** 30.5%

**Q.** What about the inhibition at 2 µg/mL (RAW 264.7 cells [1]; Mus musculus, RAW264.7, read-out: NO production inhibitory effect Percent inhibition (%)) of the same compound?
**A.** 86%

**Q.** `[O-][S+](CCOc1ccc(Cn2ccnc2)cc1)c1cnc(-c2ccccc2)c(-c2ccccc2)n1` (stereo not drawn) [Compound 1J, 5-(2-[4-(1H-imidazolylmethyl)phenoxy]ethyl)sulfinyl-2,3-diphenylpyrazine] was tested. Which “Percent inhibition (%) of carrageenan-induced edema” value ([3]; 10 mg/kg perorally once per day for four days) did it give?
**A.** 41.2%

**Q.** For `COc1ccc2c(c1)c(CC(=O)O)c(C)n2C(=O)c1ccc(Cl)cc1` [Indomethacin], which “Percent inhibition (%) of carrageenan-induced edema” value ([3]; 1 mg/kg perorally once per day for four days) is on record?
**A.** 23.8%

Source: US6958353B2, “Imidazole derivatives or salts thereof and drugs containing the derivatives or the salts” (Hisamitsu Medical Co., Ltd., priority 2000, dated 2005)
